Measured values: patent US20100048733A1, “PENETRATION ENHANCER FOR FUNGICIDES” (Bayer CropScience AG, priority 2006, published 2010)
Entries after “also recorded” stand apart in the source; their conditions may differ. One block for each molecule: values may come before it.

What was measured:
[1] = Penetration test: active substance penetration through enzymatically isolated apple leaf cuticles in diffusion cells, radioactively marked active substance; type: in vitro ADME, apple trees of the Golden Delicious variety
Experimental: In this test, the penetration of active substances through enzymatically isolated cuticles of apple tree leaves was measured.
Leaves which were cut off in the stage of full development of apple trees of the Golden Delicious variety were used. The isolation of the cuticles was effected in a manner such that • first, leaf disks marked on the underside with dye and punched out were filled by means of vacuum infiltration with a pectinase solution (0.2 to 2% strength by weight) buffered to a pH between 3 and 4, • sodium azide was then added and • the leaf disks thus treated were allowed to stand until disintegration of the original leaf structure and detachment of the noncellular cuticle.
Thereafter, only those cuticles of the upper sides of the leaves which were free of stomata and hairs were further used. They were washed several times alternately with water and a buffer solution at pH 7. The cleaned cuticles obtained were finally drawn onto small Teflon plates and smoothed and dried with a gentle air jet.
In the next step, the cuticle membranes thus obtained were placed in stainless steel diffusion cells (=transport chambers) for membrane transport investigations. For this purpose, the cuticles were placed by means of forceps centrally on the silicone grease-coated edges of the diffusion cells and closed with a likewise greased ring. The arrangement was chosen so that the morphological outside of the cuticles faced outward, i.e. toward the air, while the original inside faced the interior of the diffusion cell. The diffusion cells were filled with water or with a mixture of water and solvent.
For determining the penetration, in each case 10 μl of a spray liquor of the composition mentioned in the examples were applied to the outside of a cuticle.
In each case the solvents listed below in the table (tap water or a mixture with 20% by weight of acetone/80% by weight of tap water) were used in the spray liquors.
After the application of the spray liquors, in each case the solvent was allowed to evaporate, and in each case the chambers were then turned around and placed in thermostated trays, air having a defined temperature and atmospheric humidity being blown onto the outside of the cuticle. The incipient penetration therefore took place at a relative humidity of 60% and a set temperature of 20 or 25° C. The active substance penetration was measured with radioactively marked active substance.

crop plant = assay: Crop plant tolerance tests; type: in vivo; conditions: compared with other alkyl ester additives; no data shown
[2] = penetration of tebuconazole 0.3 g/l, without or with 2.0 g/l penetration enhancer, acetone/tap water 20/80% by weight, apple leaf cuticles, T = 20-25° C., rel. humidity 56-60%, mean of 4-8 repetitions

% Penetration (after hours): 3 hours ([1]; apple tree, 3 h, 0.3 g/l): 0.1 (3) % | % Penetration (after hours): 24 hours ([1]; apple tree, 24 h, 0.3 g/l): 0.6 (24) %
SMILES: O=C(NCc1ncc(C(F)(F)F)cc1Cl)c1c(Cl)cccc1Cl [fluopicolid, 2,6-dichloro-N-[[3-chloro-5-(trifluoromethyl)-2-pyridinyl]methyl]benzamide]

SMILES: OC(Cc1ccccc1Cl)(Cn1nc[nH]c1=S)C1(Cl)CC1 (centres unmarked) [prothioconazole]
% Penetration (after hours): 3 hours ([1]; after 3 h, 0.3 g/l active substance, without or with 2.0 g/l TBEP, acetone/tap water 20/80% by weight, apple leaf cuticles, T = 20-25° C., rel. humidity 56-60%, mean of 4-8 repetitions): 0.04 (3) % | % Penetration (after hours): 24 hours ([1]; after 24 h, 0.3 g/l active substance, without or with 2.0 g/l TBEP, acetone/tap water 20/80% by weight, apple leaf cuticles, T = 20-25° C., rel. humidity 56-60%, mean of 4-8 repetitions): 0.6 (24) %

SMILES: CC(C)(C)C(O)(CCc1ccc(Cl)cc1)Cn1cncn1 (centres unmarked) [tebuconazole]
% Penetration (after 3 hours) [1, 2]: 0.9% | % Penetration (after 24 hours) [1, 2]: 1.1%

SMILES: CCCCOCCOP(=O)(OCCOCCCC)OCCOCCCC [TBEP, tributoxyethyl phosphate]
Effect of the penetration enhancer on uptake of the active substances (in words) ([1]; summary of tables 1 and 2, 2.0 g/l TBEP with 0.3 g/l fungicide): considerable increase in uptake of the active substances; also recorded: advantageously higher increase in uptake of active substances than the penetration enhancers of the prior art | Crop plant tolerance (crop plant): more tolerant than other alkyl ester additives
